The source of these data is patent publication US7829575B2, “Methods for treating androgen receptor related disorders” (University of Cincinnati, priority 2006, dated 2010).

Where a SMILES comes first, the peptide text is derived from it. The star is where a group is joined. Cbz = O=C(OCc1ccccc1)*

The test system of one experiment is LNCaP-ARR2-GFP cells. Description: AR-regulated GFP expression in LNCaP-ARR2-GFP cells. Type of experiment: cell-based. Particulars: for GFP expression (AR agonist activity): SMEM, absence of DHT, DL3 at 25 nM or 20 μM; for cell growth: LNCaP-ARR2-GFP cells.
Experiment [1] deals with LNCaP cells (mutant AR, H877A). Briefly: LNCaP cell growth, MTT staining. Type of experiment: cell-based. From the text:
(§1) Viable cells are stained with MTT (3-(4,5-dimethylthiazol-2-yl)-2,5-diphenyltetrazolium bromide). *, **, and *** designate p<0.05, <0.01, and 0.001, respectively, compared with controls.

Experiment [2] concerns LNCaP cells. Briefly: Cell cycle distribution and apoptosis, flow cytometry (propidium staining) and western blotting. The class given is cell-based. The settings on record: for increase of the portion of cells in G1 phase of cell cycle: regardless of presence or absence of DHT. As to the method:
To further appreciate the effects of DL3 on cell growth, cell cycle distribution is determined using the flow cytometry analysis. After incubation of LNCaP cells for 24 hr in SMEM, the majority of cells are in the G1 phase of cell cycle. […] The cell cycle distribution is examined by the propidium staining method. […] Thus, DL3 induces GI arrest of prostate cancer cells in short term culture.
Background: Flow cytometry measures light scatter and fluorescence of single cells or particles in a stream.

Experiment [3] relates to LNCaP cells. Description: PSA secretion, ELISA of culture supernatant. The class given is cell-based. The settings on record: for DHT-induced PSA production / PSA production under androgen-free conditions: 20 μM, 48 hr; for PSA production under androgen-free conditions: no DHT. On the procedure:
PSA in the culture supernatant is determined by using an enzyme-linked immunosorbent assay (ELISA) kit. PSA levels are normalized by cell density.
(In general: ELISA stands for enzyme-linked immunosorbent assay.)

Experiment [4] relates to LNCaP cells. Description: Cellular PSA and AR protein, western blotting. The class given is cell-based. On the procedure:
In FIG. 6, cellular PSA and AR are analyzed by western blotting androgen-starved LNCaP cells.
(A western blot detects proteins with antibodies after separation by electrophoresis.)

The test system of experiment [5] is LNCaP cells. Description: PSA and AR mRNA expression, RT-PCR. The settings on record: 24 hr; for expression of AR mRNA: 20 μM DL3 or Bical. The class given is cell-based. As to the method:
In FIG. 7 LNCaP or 22Rv1 cells (A) are treated for 24 hr with DL3 and total RNA is extracted and analyzed by real-time RT-PCR. […] PSA mRNA in LNCaP cells is approximately 20 fold higher than that in 22Rv1 cells (FIG. 7A).

In experiment [6] the test system is LNCaP cells. Description: AR protein stability and hsp70/hsp90 expression, western blotting. The class given is cell-based. On the procedure: Cell lysates are prepared and analyzed by western blotting. […] To further determine how DL3 downregulates AR, LNCaP cells are incubated for 24 hr with DL3 in the absence or presence of proteasome inhibitor MG132.
Hsp70 and hsp90 are key molecular chaperones in cells. Along with several co-chaperones, hsp70 and hsp90 play critical roles in folding and assembling AR to a high-affinity ligand binding conformation and in regulating AR activation that occurs following hormone binding. Therefore, the possibility of whether the downregulation of AR protein by DL3 is mediated by its effects on hsp70 or hsp90 expression is investigated.
Thus, the effects of DL3 on hsp70 expression are further investigated in several other prostate cancer cell lines, including LAPC-4 (wildtype AR), 22Rv1 (mutant AR), and AR-negative cell lines PC-3, DU-145, PWE1-NB14 (ATCC), and PWE1-NB26 (ATCC). […] In FIG. 10, LAPC-4 (in SMEM) and all other (in CMEM) cells are treated for 24 hr and analyzed by western blotting. LNCaP cells are transfected for 24 hr with hsp70 or its control vector, then treated for 24 hr.

For experiment [7], the system named is LNCaP cells. Briefly: PSA and AR mRNA expression, RT-PCR. Type of experiment: cell-based. The settings on record: 6 hr.
In another experiment the test system is human PSA gene promoter. Description: PSA promoter luciferase reporter (pGL3-PSA-luc) in LNCaP cells. Particulars: 1 nM DHT, 24 hr.
Experiment [8] relates to LNCaP-Flut-R cells. Briefly: Growth of Flut-refractory LNCaP cells, MTT. Particulars: 10 μM, 4 days, MTT (FIG. 2F). Type of experiment: cell-based.
From the text: as §1

Experiment [9] relates to LNCaP-Nilut-R cells. Description: Growth of Nilut-refractory LNCaP cells, MTT. The class given is cell-based. Particulars: 10 μM, 4 days, MTT (FIG. 2F).
From the text: as §1

Experiment [10] concerns LNCaP-Flut-R cells. Description: PSA secretion, ELISA of culture supernatant. The class given is cell-based. Particulars: 1 nM DHT, 10 μM, 48 hr (FIG. 5D). As to the method:
(§2) For the following discussion, see FIG. 5, where androgen-starved LNCaP, LNCaP-Flut-R, or LNCaP-Nilut-R cells are plated into 96-well plates at 2×10^4 cells/wells in SMEM and treated for 48 hr. PSA in the culture supernatant is determined by using an enzyme-linked immunosorbent assay (ELISA) kit. PSA levels are normalized by cell density. […] The DHT-induced production of PSA is reduced by approximately 50% in cells treated with 5 μM of DL3 (FIG. 5B). […] PSA production is elevated in LNCaP-Flut-R and LNCaP-Nilut-R cells compared with that in their parental cells (FIG. 5D).

The subject of experiment [11] is LNCaP-Nilut-R cells. Description: PSA secretion, ELISA of culture supernatant. Type of experiment: cell-based. Particulars: 1 nM DHT, 10 μM, 48 hr (FIG. 5D). On the procedure:
as §2

Take `CC(O)(CS(=O)(=O)c1ccc(F)cc1)C(=O)Nc1ccc(C#N)c(C(F)(F)F)c1` (stereo not drawn) [Bical, Bicalutamide, reference compound]: in the experiment on LNCaP-ARR2-GFP cells, the “GFP expression (AR agonist activity)” value is “not”. In addition, the “effect on DHT-stimulated growth of LNCaP cells” value in [1] is on record as “inhibit DHT-stimulated growth of LNCaP cells in a dose-dependent manner”. The “increase of the portion of cells in G1 phase of cell cycle” value in the experiment with LNCaP cells [2] (24 hr) stood at 15%. Moreover, the induction of apoptosis entry in the experiment with LNCaP cells [2] (24 hr, DL3 at 20 μM) is “does not induce apoptosis”. For the same compound, the “survivin expression and caspase 3 cleavage (western blotting)” value in the experiment with LNCaP cells [2] (data not shown) is “alter neither survivin expression nor caspase 3 cleavage”. In addition, the “DHT-induced PSA production” value in the experiment on LNCaP cells [3] (1 nM DHT) was “reduce DHT-induced PSA production”. The “PSA production under androgen-free conditions” value in the experiment on LNCaP cells [3] is recorded as “stimulates PSA production”. Besides, the “PSA protein expression under androgen-free culture conditions” value in the experiment on LNCaP cells [4] (20 μM, 24 hr) is reported as “enhances PSA expression”. Also, in the experiment with LNCaP cells [4] (20 μM, 24 hr (FIG. 6C)), the “expression of AR protein” value is “moderately downregulated”. In the experiment on LNCaP cells [4] (SMEM, 24 hr, Flut, Nilut, Bical at 20 μM), the “DHT-induced PSA protein expression” value is “moderately reduced”. In addition, in the experiment on LNCaP cells [5] (20 μM, 1 nM DHT), the “DHT-stimulated PSA mRNA expression” value is “only partially inhibits”. In addition, the “basal level of PSA mRNA” value in the experiment on LNCaP cells [5] (20 μM, androgen-starved) was “no significant effects”. Further, the “expression of AR mRNA” value in the experiment with LNCaP cells [5] (1 nM DHT) is “partially downregulated”.

As to `C[C@]12CCC(=O)C[C@@H]1CC[C@@H]1[C@@H]2CC[C@]2(C)[C@@H](O)CC[C@@H]12` [DHT, dihydrotestosterone, reference compound], the PSA production result in the experiment on LNCaP cells [3] was “significantly elevated”. Further, the “expression of AR mRNA” value in the experiment on LNCaP cells [5] (1 nM DHT) is “partially downregulated”. Besides, the “expression of hsp70” value in the experiment with LNCaP cells [6] (SMEM, 24 hr with DHT or CHX (FIG. 9B, lane 3 or 5 vs. lane 1)) is “also reduced”. The “AR mRNA expression” value with LNCaP cells [7] is “not significantly altered”. Further, the “enhancement of PSA promoter activity” value in the experiment on human PSA gene promoter is recorded as “approximately 5 fold”.

Regarding `CC(C)C(=O)Nc1ccc([N+](=O)[O-])c(C(F)(F)F)c1` [Flut, Flutamide], in the experiment on LNCaP cells [2] (24 hr), the “increase of the portion of cells in G1 phase of cell cycle” value came out at 15%.

As to `O=c1c(-c2ccc(O)cc2)coc2cc(O)cc(O)c12` [Genistein], in the experiment on LNCaP-ARR2-GFP cells, the cell growth result is reported as “significantly inhibited cell growth” and the “GFP expression (AR agonist activity)” value is listed as “enhanced GFP expression”.

Regarding `CC(C)C[C@@H](C=O)NC(=O)[C@H](CC(C)C)NC(=O)[C@H](CC(C)C)NC(=O)OCc1ccccc1` [MG132, reference compound] (Cbz-Leu-Leu-Leu-aldehyde), the “DL3-induced reduction of AR” value in the experiment with LNCaP cells [6] (24 hr with DL3 in presence of MG132) is “reversed”.

As for `CC1(C)NC(=O)N(c2ccc([N+](=O)[O-])c(C(F)(F)F)c2)C1=O` [Nilut, Nilutamide, reference compound], the “growth of LNCaP-Flut-R cells” value in the experiment on LNCaP-Flut-R cells [8] is “promotes growth”. Besides, in the experiment with LNCaP-Nilut-R cells [9], the “growth of LNCaP-Nilut-R cells” value is recorded as “promotes growth”. For the same compound, the “PSA production in parental LNCaP cells” value in the experiment on LNCaP cells [3] (1 nM DHT, 10 μM, 48 hr (FIG. 5D)) was “enhances PSA production”. The “DHT-induced PSA production” value with LNCaP cells [3] (1 nM DHT) is “not”. For the same compound, the “PSA production under androgen-free conditions” value in the experiment on LNCaP cells [3] was “stimulates PSA production”. Further, the “PSA production in LNCaP-Flut-R cells” value in the experiment on LNCaP-Flut-R cells [10] is recorded as “enhances PSA production”. The “PSA production in LNCaP-Nilut-R cells” value in the experiment on LNCaP-Nilut-R cells [11] is listed as “enhances PSA production”.

Take `O=c1c(O)c(-c2ccc(O)c(O)c2)oc2cc(O)cc(O)c12` [Querstin]: in the experiment on LNCaP-ARR2-GFP cells, the cell growth result was “significantly inhibited cell growth” and the “GFP expression (AR agonist activity)” value is listed as “enhanced GFP expression”.

For `Oc1ccc(/C=C/c2cc(O)cc(O)c2)cc1` [Resveratol], in the experiment on LNCaP-ARR2-GFP cells, the cell growth entry is “significantly inhibited cell growth” and the “GFP expression (AR agonist activity)” value is on record as “enhanced GFP expression”.
